# Results: patent US20160152942A1, “METHOD FOR ISOLATING HIGHLY FURFURAL RESISTANT STRAIN AND STRAIN ISOLATED BY THE METHOD” (priority 2014, published 2016)
# Read-outs that look alike come from different tables or passages of the source.
# Assays:
# Format in all cases: cell-based
# [1] = tested on: Enterobacter cloacae strain GGT036 [Accession No. KCTC 12672BP]; assay: Inhibition of growth by furfural (Test Example 2); details: for IC50: LB medium with 1% glucose, 30 °C
# Method: (§1) The term “IC50” refers to the concentration of the toxic substance required to inhibit the maximum growth of the microorganism by 50%.
# LB media were supplemented with 1% glucose as a carbon source to prepare culture media. To the culture media was added furfural at different concentrations of 20 mM, 40 mM, and 60 mM. The growth rates of the strain in the furfural-containing media were compared with the growth rate of the strain in the furfural-free medium.
# After 50 mL of each culture medium was added to an Erlenmeyer flask, Enterobacter cloacae strain GGT036 [Accession No. KCTC 12672BP] was inoculated at an initial OD600 of 1, followed by culture at 30 ° C.
# (§2) The half maximal inhibitory concentration (IC50) values of furfural were calculated. As a result, the IC50 value against Enterobacter cloacae strain GGT036 [Accession No. KCTC 12672BP]
# E. coli = assay: Inhibition of growth by furfural, IC50 (Test Example 2); details: Escherichia coli; against E. coli; read-out: half maximal inhibitory concentration (IC50) of furfural
# Method: as §1, §2
# [2] = tested on: Corynebacterium glutamicum; assay: as above; details: against Corynebacterium glutamicum; read-out: half maximal inhibitory concentration (IC50) of furfural
# [3] = tested on: Corynebacterium glutamicum (Comparative Example 2); assay: Resistance to furfural, growth by turbidity (Test Example 1); details: 30 mM furfural, LB with 1% glucose, 30 °C, 24 h
# Method: (§3) The degrees of growth of Enterobacter cloacae strain GGT036 [Accession No. KCTC 12672BP], E. coli (Comparative Example 1), and Corynebacterium glutamicum (Comparative Example 2) in media containing 30 mM furfural were compared by turbidity measurements to identify the resistance of Enterobacter cloacae strain GGT036 to furfural.
# (§4) The media used were LB media supplemented with 1% glucose. An observation was made to determine the dependence of the growth of the strains in the media containing 30 mM furfural (FIG. 2B) and the furfural-free media (FIG. 2A) on the presence or absence of furfural.
# (§5) After 7 mL of each medium was added to a glass tube (24 mm), the colonies obtained in Example 1 were inoculated into the medium, followed by culture at 30° C. for 24 h.
# [4] = tested on: E. coli (Comparative Example 1); assay: as above; details: 30 mM furfural, LB with 1% glucose, 30 °C, 24 h
# Method: as §3, §4, §5
# [5] = tested on: Enterobacter cloacae strain GGT036 [Accession No. KCTC 12672BP]; assay: as above; details: 30 mM furfural, LB with 1% glucose, 30 °C, 24 h
# Method: as §3, §4, §5
smiles,measurement,setting,value
O=Cc1ccco1 [furfural],OD value of culture,"[1]; 60 mM furfural, after 30 h of culturing, initial OD600 of 1",≤ 2
same,IC50,"[1]; Enterobacter cloacae, read-out: half maximal inhibitory concentration (IC50) of furfural, against Enterobacter cloacae strain GGT036",45 to 55 mM
same,growth rate of strain,[1]; furfural concentration increasing from 0 mM to 40 mM,slightly retarded
same,IC50,"[1]; read-out: half maximal inhibitory concentration (IC50) of furfural, against Enterobacter cloacae strain GGT036",47.7 mM
same,IC50,E. coli,24.9 mM
same,IC50,[2],10 mM
same,growth of strain in furfural-containing medium,[3],not grown
same,growth of strain in furfural-containing medium,[4],not grown
same,growth of strain in furfural-containing medium,[5],cell growth was observed
